{"source": "patent US20230087844A1", "about": "“USE OF N2-QUINCLINE OR ISOQUINOLINE SUBSTITUTED PURINE DERIVATIVES IN CANCER TREATMENT” (SHANGHAI HUAYU BIOTECHNOLOGY CO., LTD., priority 2020, published 2023)", "key": {"Ls-174t": {"test_system": "Ls-174t", "test": "MTT tumor cell proliferation, Ls-174t", "format": "cell-based", "settings": "Homo sapiens, LS174T, Colon cancer, 72 hour", "experimental": "(§1) as an exemplary compound of formula (I), was tested for its inhibitory effect on tumor cell proliferation in a MTT assay.\n(§2) Briefly, cells at the log phase were collected, suspended in the cell culture medium at 4*10^4/ml density, and plated in 96-well plates, 90 μl per well. The plates were kept in a 5% CO2 and 37° C. incubator for 2 hours, and then added with 100 μg/ml, 10 μg/ml, 1 μg/ml, 0.1 μg/ml, 0.01 μg/ml or 0.001 μg/ml Compound A, 4 replicates for each cell at each compound concentration. DMSO was used in the positive control group, and another negative group was also set. After 72 hour incubation in the same incubator, 20 μl 5 mg/ml MTT reagent was added to each well. After another 4 hour incubation, each well was added with 100 μl SDS and further incubated for 12 hours. Absorbance at 570 nm was read in a reader, and IC50 was calculated."}, "FLT3": {"target": "FLT3 (Homo sapiens, UniProt P36888)", "sequence (P36888 27-993, species assumed)": "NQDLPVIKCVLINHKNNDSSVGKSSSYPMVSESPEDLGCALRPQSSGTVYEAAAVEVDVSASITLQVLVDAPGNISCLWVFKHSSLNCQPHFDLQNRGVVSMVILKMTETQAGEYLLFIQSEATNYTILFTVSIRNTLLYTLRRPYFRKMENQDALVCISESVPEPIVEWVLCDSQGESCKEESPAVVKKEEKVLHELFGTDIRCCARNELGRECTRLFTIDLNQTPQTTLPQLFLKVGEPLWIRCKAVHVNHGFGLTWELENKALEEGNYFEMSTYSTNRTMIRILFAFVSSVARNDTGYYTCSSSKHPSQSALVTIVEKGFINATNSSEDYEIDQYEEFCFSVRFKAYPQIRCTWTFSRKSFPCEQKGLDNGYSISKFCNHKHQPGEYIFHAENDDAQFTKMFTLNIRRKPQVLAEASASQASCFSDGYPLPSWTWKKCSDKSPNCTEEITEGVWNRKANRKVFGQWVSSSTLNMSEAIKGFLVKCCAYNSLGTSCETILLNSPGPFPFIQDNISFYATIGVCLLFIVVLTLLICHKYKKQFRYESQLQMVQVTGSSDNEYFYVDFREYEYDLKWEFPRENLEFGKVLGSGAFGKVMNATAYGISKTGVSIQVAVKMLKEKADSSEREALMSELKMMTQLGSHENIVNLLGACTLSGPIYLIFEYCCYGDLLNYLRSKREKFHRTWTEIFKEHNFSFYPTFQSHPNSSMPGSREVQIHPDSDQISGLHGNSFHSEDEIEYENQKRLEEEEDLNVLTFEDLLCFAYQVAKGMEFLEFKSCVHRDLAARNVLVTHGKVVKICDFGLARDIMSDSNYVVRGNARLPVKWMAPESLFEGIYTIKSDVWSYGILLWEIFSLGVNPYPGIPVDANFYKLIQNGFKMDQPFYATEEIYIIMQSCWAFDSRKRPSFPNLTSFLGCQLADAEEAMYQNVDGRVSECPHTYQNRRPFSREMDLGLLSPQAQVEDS", "test": "Inhibition of FLT3 phosphorylation", "format": "biochemical", "excerpt": "(§3) FLT3 is a class III receptor tyrosine kinase and plays an important role in hematopoiesis and lymphocyte development. […] Wang et al found over 60% of 82 leukemia cell lines were FLT3 positive (Wang Y et al., (2006) Journal of Experimental Hematology 14(3): 446-449). FLT3-internal tandem duplication (ITD) is the most commonly seen mutation in AML patients, with about 17-34% of AML patients carrying such a mutation (Jia H et al., (2018) Medical Laboratory Science and Clinics 19(5): 39). […] Thus, the compounds of the disclosure with high inhibitory effect on FLT3 function may be good candidates for leukemia treatment."}, "MV-4-11 cells": {"test_system": "MV-4-11 cells", "test": "MV-4-11 AML xenograft in mice (Example 7)", "format": "in vivo, BALB-cA nude mice", "settings": "D0-20; for Complete remission: number of mice, N 6", "experimental": "Mice body weights and tumor sizes were measured twice a week. The tumor volume, T/C and TGI (Tumor growth inhibition=(average tumor volume in vehicle group-average tumor volume in administration group)/average tumor volume in vehicle group ×100%) were calculated. Mice were sacrificed on Day 21."}, "U87": {"test_system": "U87", "test": "MTT tumor cell proliferation, U87", "format": "cell-based", "settings": "Homo sapiens, U-87 MG; U87, Brain glioma, 72 hour", "experimental": "as §1, §2"}, "Reh": {"test_system": "Reh", "test": "MTT tumor cell proliferation, Reh", "format": "cell-based", "settings": "Homo sapiens, Acute lymphocytic leukemia, 72 hour", "experimental": "as §1, §2"}, "H69": {"test_system": "H69", "test": "Tumor cell death by MTT, H69", "format": "cell-based, human", "settings": "20 nM", "experimental": "The in vitro inhibitory effect of Compound A alone or in combination with a PARP inhibitor on tumor cell growth was tested using human small cell lung cancer (SCLC) cell lines, including H69 (ATCC® HTB-119™), H526 (ATCC® CRL-5811™) and H446 (TCHu196, National Collection of Authenticated Cell Cultures).\nBriefly, the cells were seeded into a 96-well dish with RPMI-1640 (10-040-CV, Coming cellgro) containing 10% fetal bovine serum (10270-106, GIBCO), 1% penicillin and 1% streptomycin (BaSalMedia, S110JV), at an initial density of 3×10^3 cells per well ([…]), and cultured at a 37° C., 5% CO2 humidified incubator for 24 hours. Then, the culture media were added with Compound A (final concentration at 20 nM), olaparib (APEXBIO, A4154, a PARP inhibitor, final concentration at 10 μM), Compound A + olaparib (final concentrations at20 nM and 10 μM), or PBS (vehicle), respectively, and the cells were cultured for 48 hours. Then, cell viability was determined by MTT. The test was done in triplicate.\nCell death rate was calculated by the following formula.\nCell death rate=[1−(ODtest-ODvehicle)]×100%\nCell death rates were analyzed using student's t-test, and group differences were deemed statistically significant when the p-value was lower than 0.05. Zheng-Jun Jin's Q value was calculated using the formula Q=EA+B/(EA+EB-EA×EB) to assess the combined effect of Compound A and the PARP inhibitor, wherein EA+B, EA, and EB referred to the cell death rates caused by the combined treatment, Compound A treatment and PARP inhibitor treatment, respectively. A Q value higher than 1.15 meant a synergistic […] effect.\nAnother PARP inhibitor, rucaparib (APEXBIO, A4156), was tested alone or with Compound A for inhibitory effect on tumor cell growth, following the protocol of Example 9."}, "AKT": {"test_system": "AKT", "test": "Inhibition of AKT phosphorylation", "format": "biochemical", "excerpt": "as §3"}, "THP-1": {"test_system": "THP-1", "test": "MTT tumor cell proliferation, THP-1", "format": "cell-based", "settings": "Homo sapiens; THP-1, Acute monocytic leukemia, 72 hour", "experimental": "as §1, §2"}, "PI3K β isoform": {"target": "PI3K β isoform (Homo sapiens, UniProt P42338)", "sequence (P42338 whole entry, canonical isoform)": "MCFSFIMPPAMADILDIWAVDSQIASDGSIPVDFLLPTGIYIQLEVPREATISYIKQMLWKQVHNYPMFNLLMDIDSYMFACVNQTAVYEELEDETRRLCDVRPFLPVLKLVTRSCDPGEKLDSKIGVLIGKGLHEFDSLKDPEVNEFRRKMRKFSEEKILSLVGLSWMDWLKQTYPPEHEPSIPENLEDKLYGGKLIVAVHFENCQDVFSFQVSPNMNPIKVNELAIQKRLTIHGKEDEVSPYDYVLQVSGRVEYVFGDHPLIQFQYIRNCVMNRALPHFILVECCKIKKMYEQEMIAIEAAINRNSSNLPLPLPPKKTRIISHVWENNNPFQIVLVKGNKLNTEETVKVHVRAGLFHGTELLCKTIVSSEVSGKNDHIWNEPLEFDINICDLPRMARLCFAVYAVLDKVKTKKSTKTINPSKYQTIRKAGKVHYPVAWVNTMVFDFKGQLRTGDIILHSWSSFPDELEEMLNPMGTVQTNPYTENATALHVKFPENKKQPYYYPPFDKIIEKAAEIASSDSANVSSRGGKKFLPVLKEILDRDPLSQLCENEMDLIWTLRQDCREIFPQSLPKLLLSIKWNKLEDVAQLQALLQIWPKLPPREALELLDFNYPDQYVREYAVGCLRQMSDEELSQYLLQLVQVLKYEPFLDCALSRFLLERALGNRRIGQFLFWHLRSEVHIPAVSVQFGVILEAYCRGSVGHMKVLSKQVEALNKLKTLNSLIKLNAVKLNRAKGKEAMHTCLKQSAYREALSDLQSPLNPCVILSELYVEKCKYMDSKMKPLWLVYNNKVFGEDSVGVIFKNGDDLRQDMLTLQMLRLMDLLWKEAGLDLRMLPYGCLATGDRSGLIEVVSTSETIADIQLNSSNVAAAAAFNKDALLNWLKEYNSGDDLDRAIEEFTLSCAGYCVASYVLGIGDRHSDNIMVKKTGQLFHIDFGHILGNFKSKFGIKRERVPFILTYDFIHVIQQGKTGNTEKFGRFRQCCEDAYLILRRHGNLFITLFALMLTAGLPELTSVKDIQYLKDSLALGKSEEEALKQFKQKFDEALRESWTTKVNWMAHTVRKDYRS", "sequence (P27986 whole entry partner, canonical isoform)": "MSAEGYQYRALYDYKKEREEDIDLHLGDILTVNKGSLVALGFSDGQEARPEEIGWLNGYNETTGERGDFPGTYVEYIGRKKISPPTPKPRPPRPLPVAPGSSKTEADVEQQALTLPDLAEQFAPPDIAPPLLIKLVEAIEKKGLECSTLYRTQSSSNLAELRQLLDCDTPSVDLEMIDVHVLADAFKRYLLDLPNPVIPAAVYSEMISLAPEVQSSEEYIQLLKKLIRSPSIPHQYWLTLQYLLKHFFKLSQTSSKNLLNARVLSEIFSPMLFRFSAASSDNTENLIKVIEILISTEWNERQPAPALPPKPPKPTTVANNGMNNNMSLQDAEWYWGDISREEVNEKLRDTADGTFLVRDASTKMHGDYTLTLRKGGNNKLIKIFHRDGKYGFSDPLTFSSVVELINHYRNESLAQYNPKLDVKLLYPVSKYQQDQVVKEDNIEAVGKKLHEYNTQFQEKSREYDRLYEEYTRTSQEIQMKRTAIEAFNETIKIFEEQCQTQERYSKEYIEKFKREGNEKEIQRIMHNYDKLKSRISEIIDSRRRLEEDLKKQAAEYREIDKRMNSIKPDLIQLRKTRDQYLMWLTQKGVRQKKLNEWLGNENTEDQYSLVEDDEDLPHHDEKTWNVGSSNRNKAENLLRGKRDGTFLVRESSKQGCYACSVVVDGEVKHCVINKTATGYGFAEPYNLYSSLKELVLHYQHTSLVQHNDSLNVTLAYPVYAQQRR", "settings": "one of the other three isoforms"}, "[1]": {"test_system": "A549 human non-small cell lung cancer cells", "test": "A549 non-small cell lung cancer xenograft in mice", "settings": "D0, 3, 6, 9; for T/C: D18", "description": "Mice body weights and tumor sizes were measured 2 to 3 times a week. The tumor volume (V) was calculated as (length× width^2)/2. T/C (%) was calculated as (T-T0)/(C-C0)×100, wherein T and C represented the tumor volumes in the administration group and the vehicle group respectively at the end of the experiment, while T0 and C0 represented the tumor volumes in the administration group and the vehicle group respectively at the beginning of the experiment. And RTV was calculated as (Tumor volume at Day N/Tumor volume at Day 0). Mice were sacrificed on Day-14.\nBALB/cA-nude mice, 5-6 weeks old, purchased from Shanghai SLAC Laboratory Animal Co., Ltd, were subcutaneously inoculated with A549 human non-small cell lung cancer cells (from ATCC).\nMice body weights and tumor sizes were measured 2 to 3 times a week. The tumor volume, T/C and RTV were calculated as described above. Mice were sacrificed on Day 18."}, "SNU-5": {"test_system": "SNU-5", "test": "MTT tumor cell proliferation, SNU-5", "format": "cell-based", "settings": "Homo sapiens; SNU-5, Gastric cancer, 72 hour", "experimental": "as §1, §2"}, "[2]": {"test_system": "Colon26 murine colon cancer cells", "test": "Colon26 colon cancer growth in mice", "format": "in vivo, F1 mice", "settings": "D1-7; for TGI / Tumor weight: Day 8", "experimental": "F1 mice, 18-22 g, purchased from Shanghai Bi-Kai Laboratory Animal Co., Ltd, were subcutaneously inoculated with Colon26 murine colon cancer cells (from Cell Bank, Chinese Academy of Sciences) at the right axilla. […] Tumor growth inhibition (TGI) was calculated."}}, "note": "Marks after values point to notes of the source that are not given here.", "data": [{"smiles": "c1cnc2ccc(Nc3nc(NC4CC4)c4nc[nH]c4n3)cc2c1", "note": "[Compound A]", "values": [{"measurement": "IC50", "setting": "Ls-174t", "result": "5900 ± 900", "unit": "nM"}, {"measurement": "EC50", "setting": "FLT3", "result": "~49", "unit": "nM"}, {"measurement": "T/C (%) D21", "setting": "MV-4-11 cells; 30 mg/kg P.O.", "result": 28, "unit": "%"}, {"measurement": "TGI (%) D21", "setting": "MV-4-11 cells; 30 mg/kg P.O.", "result": 72, "unit": "%"}, {"measurement": "Tumor volume D0", "setting": "MV-4-11 cells; 30 mg/kg P.O.", "result": "77.6 ± 3.4", "unit": "mm^3"}, {"measurement": "Tumor volume D21", "setting": "MV-4-11 cells; 30 mg/kg P.O.", "result": "279.2 ± 71.8", "unit": "mm^3"}, {"measurement": "Complete remission", "setting": "MV-4-11 cells; 30 mg/kg P.O.", "result": 0}, {"measurement": "T/C (%) D21", "setting": "MV-4-11 cells; 60 mg/kg P.O.", "result": 0, "unit": "%"}, {"measurement": "TGI (%) D21", "setting": "MV-4-11 cells; 60 mg/kg P.O.", "result": 100, "unit": "%"}, {"measurement": "Tumor volume D0", "setting": "MV-4-11 cells; 60 mg/kg P.O.", "result": "79.3 ± 2.6", "unit": "mm^3"}, {"measurement": "Tumor volume D21", "setting": "MV-4-11 cells; 60 mg/kg P.O.", "result": "76.6 ± 46.2", "unit": "mm^3"}, {"measurement": "Complete remission", "setting": "MV-4-11 cells; 60 mg/kg P.O.", "result": 3}, {"measurement": "IC50", "setting": "U87", "result": "9700 ± 7000", "unit": "nM"}, {"measurement": "IC50", "setting": "Reh", "result": "800 ± 100", "unit": "nM"}, {"measurement": "Cell Death Rate/% 1", "setting": "H69; 48 hours, Table 10", "result": 6.75, "unit": "%"}, {"measurement": "Cell Death Rate/% 2", "setting": "H69; 48 hours, Table 10", "result": 6.48, "unit": "%"}, {"measurement": "Cell Death Rate/% 3", "setting": "H69; 48 hours, Table 10", "result": 6.31, "unit": "%"}, {"measurement": "Cell Death Rate/% mean", "setting": "H69; 48 hours, Table 10", "result": 6.51, "unit": "%"}, {"measurement": "Cell Death Rate/% 1", "setting": "H69; Example 10, Table 11", "result": 7.36, "unit": "%"}, {"measurement": "Cell Death Rate/% 2", "setting": "H69; Example 10, Table 11", "result": 7.65, "unit": "%"}, {"measurement": "Cell Death Rate/% 3", "setting": "H69; Example 10, Table 11", "result": 7.02, "unit": "%"}, {"measurement": "Cell Death Rate/% mean", "setting": "H69; Example 10, Table 11", "result": 7.34, "unit": "%"}, {"measurement": "EC50", "setting": "AKT", "result": "~100", "unit": "nM"}, {"measurement": "IC50", "setting": "THP-1", "result": "1600 ± 1600", "unit": "nM"}, {"measurement": "EC50, PI3K β isoform", "setting": "PI3K β isoform", "result": "at the μM level"}, {"measurement": "RTV at D18", "setting": "[1]; 15 mg/kg P.O.", "result": "18.67 ± 12.89"}, {"measurement": "Tumor volume D0", "setting": "[1]; 15 mg/kg P.O.", "result": "118 ± 21", "unit": "mm^3"}, {"measurement": "Tumor volume D18", "setting": "[1]; 15 mg/kg P.O.", "result": "2135 ± 1279", "unit": "mm^3"}, {"measurement": "T/C", "setting": "[1]; 15 mg/kg P.O.", "result": 70.8, "unit": "%"}, {"measurement": "RTV at D18", "setting": "[1]; 30 mg/kg P.O.", "result": "12.58 ± 4.38"}, {"measurement": "Tumor volume D0", "setting": "[1]; 30 mg/kg P.O.", "result": "113 ± 19", "unit": "mm^3"}, {"measurement": "Tumor volume D18", "setting": "[1]; 30 mg/kg P.O.", "result": "1449 ± 608", "unit": "mm^3"}, {"measurement": "T/C", "setting": "[1]; 30 mg/kg P.O.", "result": "47.7* %"}, {"measurement": "RTV at D18", "setting": "[1]; 60 mg/kg P.O.", "result": "9.15 ± 5.33"}, {"measurement": "Tumor volume D0", "setting": "[1]; 60 mg/kg P.O.", "result": "110 ± 11", "unit": "mm^3"}, {"measurement": "Tumor volume D18", "setting": "[1]; 60 mg/kg P.O.", "result": "1039 ± 669", "unit": "mm^3"}, {"measurement": "T/C", "setting": "[1]; 60 mg/kg P.O.", "result": "34.7* %"}, {"measurement": "IC50", "setting": "SNU-5", "result": "12100 ± 2000", "unit": "nM"}, {"measurement": "Body weight (without tumor) at D8", "setting": "[2]; 30 mg/kg P.O.", "result": 21.57, "unit": "g"}, {"measurement": "TGI", "setting": "[2]; 30 mg/kg P.O.", "result": 31.88, "unit": "%"}, {"measurement": "Tumor weight", "setting": "[2]; 30 mg/kg P.O.", "result": 1.39, "unit": "g"}, {"measurement": "Body weight (without tumor) at D8", "setting": "[2]; 60 mg/kg P.O.", "result": 15.96, "unit": "g"}, {"measurement": "TGI", "setting": "[2]; 60 mg/kg P.O.", "result": 76.12, "unit": "%"}, {"measurement": "Tumor weight", "setting": "[2]; 60 mg/kg P.O.", "result": 0.49, "unit": "g"}]}]}
